The values that follow come from publication PMC11904984, “The Gut Microbiota‐Xanthurenic Acid‐Aromatic Hydrocarbon Receptor Axis Mediates the Anticolitic Effects of Trilobatin” (Advanced Science, 2025).

The experiment deals with T1, aromatic hydrocarbon receptor (AhR) (Homo sapiens, UniProt P35869).
T1 construct: His-tagged recombinant human AhR (MST); recombinant human AhR (SPR)
T1 sequence (P35869 11-848): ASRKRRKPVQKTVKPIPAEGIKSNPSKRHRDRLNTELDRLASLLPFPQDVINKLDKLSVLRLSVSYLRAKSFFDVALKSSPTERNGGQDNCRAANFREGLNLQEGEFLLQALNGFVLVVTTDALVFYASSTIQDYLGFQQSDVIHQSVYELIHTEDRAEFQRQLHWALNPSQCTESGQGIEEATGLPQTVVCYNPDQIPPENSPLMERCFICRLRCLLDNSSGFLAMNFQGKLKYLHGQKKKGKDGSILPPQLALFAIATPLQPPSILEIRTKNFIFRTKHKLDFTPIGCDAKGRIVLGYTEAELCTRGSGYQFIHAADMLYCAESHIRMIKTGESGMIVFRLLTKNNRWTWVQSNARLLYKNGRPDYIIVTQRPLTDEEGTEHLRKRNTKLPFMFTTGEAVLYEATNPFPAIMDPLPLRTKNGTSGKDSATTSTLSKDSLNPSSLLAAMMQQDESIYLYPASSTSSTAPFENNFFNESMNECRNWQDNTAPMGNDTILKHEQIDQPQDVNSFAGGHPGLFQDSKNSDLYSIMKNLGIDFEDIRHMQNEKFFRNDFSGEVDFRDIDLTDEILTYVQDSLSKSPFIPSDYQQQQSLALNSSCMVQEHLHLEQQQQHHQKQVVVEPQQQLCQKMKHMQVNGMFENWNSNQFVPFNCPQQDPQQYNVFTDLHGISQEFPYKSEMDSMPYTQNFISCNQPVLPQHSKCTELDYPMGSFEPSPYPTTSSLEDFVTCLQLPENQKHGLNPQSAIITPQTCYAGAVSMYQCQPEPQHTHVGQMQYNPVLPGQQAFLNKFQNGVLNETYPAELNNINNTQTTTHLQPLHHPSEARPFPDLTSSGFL
The experiment can be described thus: SPR (Biacore, CM5 chip, immobilized AhR); also MST, KD […]. It counts as binding. A general note: Surface plasmon resonance follows binding to a sensor surface in real time, without labels.

As a reminder, the Kd is the constant that tells how readily two partners part at equilibrium. Read a low Kd as tighter binding. In turn, `O=C(CCc1ccc(O)cc1)c1c(O)cc(O[C@@H]2O[C@H](CO)[C@@H](O)[C@H](O)[C@H]2O)cc1O` [TLB, Trilobatin] yielded a Kd of 10.3 µM.
